Assay results published in patent US4221805A, “Method of inducing platelet antiaggregation activity” (priority 1978, dated 1980).

What was measured:
[1] = test system: human PRP (Platelet Rich Plasma), platelet aggregation induced by ADP; experiment: In vitro platelet antiaggregation activity (Born method, ADP-induced); format: cell-based; settings: Platelet, ADP 10^-3 mM
Description: The method described by Born (Nature, 194, 927, 1962) was followed for this test, based on the increase in the platelet aggregation induced by ADP. The experiment was conducted using a human PRP (Platelet Rich Plasma) pool from four healthy volunteers who had not taken any drugs for ten days. The PRP was adjusted to 280,000±20,000 and kept at ambient temperature for the entire duration of the test.
400 μl of PRP and 100 μl of MRAP2 dissolved in a physiological solution and adjusted to a pH of 7.4 were placed in plastic test tubes. Three doses of the drug in question (0.181, 0.904 and 1.818 mg/ml) were used.
Three dilutions of aspirin were prepared under the same conditions for use as a comparison drug. Two minutes after contact between the drug and PRP, the test tube was inserted into the aggregometer cell (EEI, Model 169 with Corning Recorder Mod.840). After 60 seconds, ADP (10^-3 mM) was added and the aggregation was recorded. In calculating the antiaggregation activity, reference was made to the maximum amplitude of the aggregation curved obtained with ADP. Assuming this amplitude to be 100, the amplitudes of the curves obtained with the various doses of MRAP2 and aspirin were calculated as a percentage.

[2] = test system: platelet aggregation; experiment: In vivo platelet antiaggregation activity; design: species or system male rats, Wistar strain; settings: rats, single oral dose 3 mg/kg
Description: This experiment was carried out on male rats of the Wistar strain having a weight of 320±20 grams. Both the MRAP2 and the aspirin (used as a comparison drug) were dissolved in a physiological solution, and the solutions, adjusted to pH 7.4, were administered orally in doeses of 3 mg/kg to two groups of three rats each. […] The concentration of the solution was adjusted to contain 100 mg of MRAP2 per ml. Blood samples were drawn from each animal 72 and 120 hours after treatment, for checking the platelet aggregation. In calculating the activity, the previous method was used (the average of the three maximum amplitudes of the curves obtained with the untreated rats was given the control figure of 100%).

[3] = test system: stomach (gastric lesion); experiment: Ulcerogenic activity in rats after a single administration; format: in vivo, male albino rats, Wistar strain; settings: rat, in vivo, po
Description: The ulcerogenic activity of MRAP2 was tested both after a single administration of the drug, and after prolonged administration.
In these tests, a total of 70 male albino rats of Wistar strain were used, having a weight of 200±20 grams.
The MRAP2 was administered diluted in tap water.
40 rats, fasted for 18 hours before the experiment, were divided into four batches of ten animals and treated orally as follows:
3rd group: MRAP2 (50 mg/kg)
4th group: MRAP2 (125 mg/kg).
The animals were killed after six hours. The stomach was withdrawn and the gastric lesion index was evaluated in terms of an arbitrary scale of values lying between 0. and 7 based on previous models proposed by other authors.
Furthermore, the treatment was randomised in order to eliminate any possible polarisation of the data.
The points given for gastric ulcerative lesions were as follows:
(1) hyperaemia or slight capillary obstruction; or slight loss of the epithelium; or some petechiae even with pale mucosa without hyperaemia;
(2) diffuse capillary obstructions or numerous petechiae; or diffuse loss of the epithelium; of a few surface lesions;
(3) strong submucosa haemorrhage; or many petechiae and small surface lesions; or much anaemic mucosa (yellowish colour); or up to three small ulcers;
(4) general pattern as in the previous numbers, plus up to ten small ulcers; or long erosions; or up to three medium sized ulcers;
(5) pattern as in number 4, with up to 15 small ulcers; or up to 6 large ulcers;
(6) pattern as previously, with up to ten large ulcers, plus small ulcers;
(7) pattern as previously, plus up to ten large ulcers and small ulcers; cases of perforated ulcers.

## CC(=O)Oc1ccccc1C(=O)O [aspirin, reference compound]
[1]; drug 0.181 mg/ml
  inhibition of platelet aggregation at 181 µg/mL: 5%
[1]; drug 0.181 mg/ml, serum + ADP = 100
  activity at 181 µg/mL: 95%
[1]; drug 0.904 mg/ml
  inhibition of platelet aggregation at 904 µg/mL: 63%
[1]; drug 0.904 mg/ml, serum + ADP = 100
  activity at 904 µg/mL: 37%
[1]; drug 1.818 mg/ml
  inhibition of platelet aggregation at 1818 µg/mL: 74%
[1]; drug 1.818 mg/ml, serum + ADP = 100
  activity at 1818 µg/mL: 26%
[2]; day 3 (72 hours)
  % platelet antiaggregation activity on day 3: 25%
[2]; day 3 (72 hours), controls = 100
  % platelet aggregation on day 3: 75%
[2]; day 5 (120 hours)
  % platelet antiaggregation activity on day 5: 25%
[2]; day 5 (120 hours), controls = 100
  % platelet aggregation on day 5: 75%

## CCCCC1C(=O)N(c2ccccc2)N(c2ccccc2)C1=O [phenylbutazone, reference compound]
[3]
  incidence of ulcerative lesions (in words): very marked
